In patent US6525001B1, “Substituted pyrimidine and pyridine herbicides” (Mid-American Commercialization Corporation, priority 1997, dated 2003):

Columns and labels:
Assay in all cases: Test D
Type in all cases: in vivo
kochia (Kochia scoparia) = tested on: kochia (Kochia scoparia); set-up: key: 0 is no effect; 10 is complete control; conditions: POSTEMERGENCE
Protocol: (§1) Compounds evaluated in this test were formulated in a non-phytotoxic solvent mixture which included a surfactant and applied to plants that were in the 1- to 4-leaf stage (postemergence application). A mixture of sandy loam soil and greenhouse potting mix in a 60:40 ratio was used for the postemergence test.
(§2) Plantings of these crops and weed species were adjusted to produce plants of appropriate size for the postemergence test. All plant species were grown using normal greenhouse practices. Crop and weed species include alfalfa (Medicago sativa), annual bluegrass (Poa annua), blackgrass (Alopecurus myosuroides), black nightshade (Solanum nigra), chickweed (Stellaria media), common poppy (Papaver rhoeas), deadnettle (Lamium amplexicaule), downy brome (Bromus tectorum), field violet (Viola arvensis), galium 2 (Galium aparine), green foxtail (Setaria viridis), Italian ryegrass (Lolium multiflorum), jointed goatgrass (Aegilops cylindrica), kochia (Kochia scoparia), lambsquarters (Chenopodium album), lentil (Lens culinaris), littleseed canarygrass (Phalaris minor), pea (Pisum sativum), potato (Solanum tuberosum), rape (Brassica napus), redroot pigweed (Amaranthus retroflexus), Russian thistle (Salsola kali), scentless chamomile (Matricaria inodora), sorghum (Sorghum vulgare), spring barley (Hordeum vulgare), sugar beet (Beta vulgaris), sunflower (Helianthus annuus), ivyleaf speedwell (Veronica hederaefolia), spring wheat (Triticum aestivum), winter wheat (Triticum aestivum), wild buckwheat (Polygonum convolvulus), wild mustard (Sinapis arvensis), wild oat (Avena fatua), windgrass (Apera spica-venti) and winter barley (Hordeum vulgare).
(§3) Treated plants and untreated controls were maintained in a greenhouse for approximately 21 to 28 days, after which all treated plants were compared to untreated controls and visually evaluated. Plant response ratings, summarized in Table D, are based upon a 0 to 100 scale where 0 is no effect and 100 is complete control. A dash response (−) means no test result.

[1] = tested on: wild buckwheat (Polygonum convolvulus); set-up: key: 0 is no effect; 10 is complete control; conditions: POSTEMERGENCE
Protocol: as §1, §2, §3

[2] = tested on: redroot pigweed (Amaranthus retroflexus); set-up: key: 0 is no effect; 10 is complete control; conditions: POSTEMERGENCE
Protocol: as §1, §2, §3

[3] = tested on: galium 2 (Galium aparine); set-up: key: 0 is no effect; 10 is complete control; conditions: POSTEMERGENCE
Protocol: as §1, §2, §3

[4] = tested on: wild mustard (Sinapis arvensis); set-up: key: 0 is no effect; 100 is complete control; conditions: PREEMERGENCE
[5] = tested on: deadnettle (Lamium amplexicaule); conditions: PREEMERGENCE
[6] = tested on: galium 2 (Galium aparine); set-up: key: 0 is no effect; 100 is complete control; conditions: PREEMERGENCE
rape (Brassica napus) [7] = tested on: rape (Brassica napus); set-up: key: 0 is no effect; 100 is complete control; conditions: PREEMERGENCE
[8] = tested on: wild buckwheat (Polygonum convolvulus); conditions: PREEMERGENCE
[9] = tested on: Italian ryegrass (Lolium multiflorum); conditions: PREEMERGENCE
[10] = tested on: blackgrass (Alopecurus myosuroides); conditions: PREEMERGENCE
[11] = tested on: littleseed canarygrass (Phalaris minor); conditions: PREEMERGENCE
[12] = tested on: common poppy (Papaver rhoeas); set-up: key: 0 is no effect; 100 is complete control; conditions: PREEMERGENCE
[13] = tested on: black nightshade (Solanum nigra); set-up: key: 0 is no effect; 100 is complete control; conditions: POSTEMERGENCE
Protocol: as §1, §2, §3

[14] = tested on: chickweed (Stellaria media); set-up: key: 0 is no effect; 100 is complete control; conditions: POSTEMERGENCE
Protocol: as §1, §2, §3

[15] = tested on: common poppy (Papaver rhoeas); set-up: key: 0 is no effect; 100 is complete control; conditions: POSTEMERGENCE
Protocol: as §1, §2, §3

[16] = tested on: deadnettle (Lamium amplexicaule); set-up: key: 0 is no effect; 100 is complete control; conditions: POSTEMERGENCE
Protocol: as §1, §2, §3

rape (Brassica napus) [17] = tested on: rape (Brassica napus); set-up: key: 0 is no effect; 100 is complete control; conditions: POSTEMERGENCE
Protocol: as §1, §2, §3

[18] = tested on: wild mustard (Sinapis arvensis); set-up: key: 0 is no effect; 100 is complete control; conditions: POSTEMERGENCE
Protocol: as §1, §2, §3

[19] = tested on: sugar beet (Beta vulgaris); set-up: key: 0 is no effect; 100 is complete control; conditions: POSTEMERGENCE
Protocol: as §1, §2, §3

[20] = tested on: sugar beet (Beta vulgaris); set-up: key: 0 is no effect; 100 is complete control; conditions: PREEMERGENCE
[21] = tested on: windgrass (Apera spica-venti); conditions: POSTEMERGENCE
Protocol: as §1, §2, §3

Cc1cnc(-c2ccc(C(F)(F)F)cc2)nc1Cc1cccc(C(F)(F)F)c1 [Example 1, 5-methyl-2-[4-(trifluoromethyl)phenyl]-4-[[3-(trifluoromethyl)phenyl]methyl]pyrimidine]
Plant response rating, Kochia (kochia (Kochia scoparia); Rate 16 g/ha): 0 | Plant response rating, Kochia (kochia (Kochia scoparia); Rate 31 g/ha): 60 | Plant response rating, Kochia (kochia (Kochia scoparia); Rate 62 g/ha): 80 | Plant response rating, Kochia (kochia (Kochia scoparia); Rate 125 g/ha): 70 | Plant response rating, Wild buckwheat ([1]; Rate 16 g/ha): 0 | Plant response rating, Wild buckwheat ([1]; Rate 31 g/ha): 0 | Plant response rating, Wild buckwheat ([1]; Rate 62 g/ha): 0 | Plant response rating, Wild buckwheat ([1]; Rate 125 g/ha): 20 | Plant response rating, Redroot pigweed ([2]; Rate 16 g/ha): 0 | Plant response rating, Redroot pigweed ([2]; Rate 31 g/ha): 70 | Plant response rating, Redroot pigweed ([2]; Rate 62 g/ha): 70 | Plant response rating, Redroot pigweed ([2]; Rate 125 g/ha): 50 | Plant response rating, Galium ([3]; Rate 16 g/ha): 0 | Plant response rating, Galium ([3]; Rate 31 g/ha): 60 | Plant response rating, Galium ([3]; Rate 62 g/ha): 70 | Plant response rating, Galium ([3]; Rate 125 g/ha): 70 | Plant response rating, Wild mustard ([4]; Rate 31 g/ha): 60 | Plant response rating, Wild mustard ([4]; Rate 62 g/ha): 100 | Plant response rating, Wild mustard ([4]; Rate 125 g/ha): 100 | Plant response rating, Wild mustard ([4]; Rate 250 g/ha): 98 | Plant response rating, Deadnettle ([5]; Rate 31 g/ha): 60 | Plant response rating, Deadnettle ([5]; Rate 62 g/ha): 65 | Plant response rating, Deadnettle ([5]; Rate 125 g/ha): 85 | Plant response rating, Deadnettle ([5]; Rate 250 g/ha): 90 | Plant response rating, Galium ([6]; Rate 31 g/ha): 20 | Plant response rating, Galium ([6]; Rate 62 g/ha): 100 | Plant response rating, Galium ([6]; Rate 125 g/ha): 100 | Plant response rating, Galium ([6]; Rate 250 g/ha): 100 | Plant response rating, Rape (rape (Brassica napus) [7]; Rate 31 g/ha): 30 | Plant response rating, Rape (rape (Brassica napus) [7]; Rate 62 g/ha): 75 | Plant response rating, Rape (rape (Brassica napus) [7]; Rate 125 g/ha): 100 | Plant response rating, Rape (rape (Brassica napus) [7]; Rate 250 g/ha): 100 | Plant response rating, Wild buckwheat ([8]; Rate 31 g/ha): 40 | Plant response rating, Wild buckwheat ([8]; Rate 62 g/ha): 80 | Plant response rating, Wild buckwheat ([8]; Rate 125 g/ha): 85 | Plant response rating, Wild buckwheat ([8]; Rate 250 g/ha): 85 | Plant response rating, I. Ryegrass ([9]; Rate 31 g/ha): 10 | Plant response rating, I. Ryegrass ([9]; Rate 62 g/ha): 40 | Plant response rating, Blackgrass ([10]; Rate 31 g/ha): 30 | Plant response rating, Blackgrass ([10]; Rate 62 g/ha): 50 | Plant response rating, Blackgrass ([10]; Rate 125 g/ha): 60 | Plant response rating, Blackgrass ([10]; Rate 250 g/ha): 70 | Plant response rating, LS canarygrass ([11]; Rate 31 g/ha): 20 | Plant response rating, LS canarygrass ([11]; Rate 62 g/ha): 60 | Plant response rating, LS canarygrass ([11]; Rate 125 g/ha): 85 | Plant response rating, LS canarygrass ([11]; Rate 250 g/ha): 70 | Plant response rating, Common poppy ([12]; Rate 31 g/ha): 80 | Plant response rating, Common poppy ([12]; Rate 62 g/ha): 100 | Plant response rating, Common poppy ([12]; Rate 125 g/ha): 100 | Plant response rating, Common poppy ([12]; Rate 250 g/ha): 100 | Plant response rating, Blk nightshade ([13]; Rate 16 g/ha): 60 | Plant response rating, Blk nightshade ([13]; Rate 62 g/ha): 50 | Plant response rating, Blk nightshade ([13]; Rate 125 g/ha): 50 | Plant response rating, Chickweed ([14]; Rate 16 g/ha): 80 | Plant response rating, Chickweed ([14]; Rate 62 g/ha): 80 | Plant response rating, Chickweed ([14]; Rate 125 g/ha): 70 | Plant response rating, Common poppy ([15]; Rate 16 g/ha): 50 | Plant response rating, Common poppy ([15]; Rate 31 g/ha): 100 | Plant response rating, Common poppy ([15]; Rate 62 g/ha): 100 | Plant response rating, Common poppy ([15]; Rate 125 g/ha): 100 | Plant response rating, Deadnettle ([16]; Rate 16 g/ha): 85 | Plant response rating, Deadnettle ([16]; Rate 31 g/ha): 70 | Plant response rating, Deadnettle ([16]; Rate 62 g/ha): 70 | Plant response rating, Deadnettle ([16]; Rate 125 g/ha): 70 | Plant response rating, Rape (rape (Brassica napus) [17]; Rate 16 g/ha): 65 | Plant response rating, Rape (rape (Brassica napus) [17]; Rate 31 g/ha): 100 | Plant response rating, Rape (rape (Brassica napus) [17]; Rate 62 g/ha): 100 | Plant response rating, Rape (rape (Brassica napus) [17]; Rate 125 g/ha): 85 | Plant response rating, Wild mustard ([18]; Rate 16 g/ha): 85 | Plant response rating, Wild mustard ([18]; Rate 31 g/ha): 100 | Plant response rating, Wild mustard ([18]; Rate 62 g/ha): 100 | Plant response rating, Wild mustard ([18]; Rate 125 g/ha): 100 | Plant response rating, Sugar beet ([19]; Rate 16 g/ha): 45 | Plant response rating, Sugar beet ([19]; Rate 31 g/ha): 75 | Plant response rating, Sugar beet ([19]; Rate 62 g/ha): 90 | Plant response rating, Sugar beet ([19]; Rate 125 g/ha): 100 | Plant response rating, Sugar beet ([20]; Rate 31 g/ha): 30 | Plant response rating, Sugar beet ([20]; Rate 62 g/ha): 100 | Plant response rating, Sugar beet ([20]; Rate 125 g/ha): 85 | Plant response rating, Sugar beet ([20]; Rate 250 g/ha): 100 | Plant response rating, Windgrass ([21]; Rate 16 g/ha): 5 | Plant response rating, Windgrass ([21]; Rate 31 g/ha): 20 | Plant response rating, Windgrass ([21]; Rate 125 g/ha): 30
